In publication PMC11640419, “New Synthetic Analogs of Natural 5Z,9Z-Dienoic Acids—Hybrid Molecules Based on Oleanolic Acid: Synthesis and Study of Antitumor Activity” (Cancers, 2024):
Where two headings read alike, the source gives them in different places.

Legend:
Assay type in all cases: cell-based, human
Jurkat = assay: Cytotoxicity assay (7-AAD, flow cytometry)
Protocol: (§1) The human cell lines Jurkat, K562, U937, and HEK293 were obtained from the European Collection of Authenticated Cell Cultures (ECACC) and subsequently cultured in accordance with established standard protocols and sterile techniques. […] Subsequently, the cells were seeded into 24-well plates at a density of 5 × 10^4 cells per well and incubated for 12 h (Jurkat, K562, U937) and 24 h (HEK293).
(§2) The viability of the cells was evaluated through the utilization of the 7-AAD (7-aminoactinomycin D) dye (eBioscience™, San Diego, CA, USA). Following a 24 h incubation period with the test substances, the cells were washed with phosphate-salt buffer (PBS) and centrifuged at 400× g for five minutes. […] Subsequently, all cell samples were subjected to analysis on a NovoCyte Penteon flow cytometer (Agilent, Santa Clara, CA, USA).

Jurkat cells [1] = assay: MILLIPLEX MAP 7-plex DNA Damage/Genotoxicity Magnetic Bead Kit (Luminex)
From the text: (§3) In this study, we employed Luminex technology (MILLIPLEX® MAP 7-plex DNA Damage/Genotoxicity Magnetic Bead Kit and MILLIPLEX® MAP Early Apoptosis 7-plex Magnetic Bead Kit) to analyze protein analytes in Jurkat cell lysates. […] The Luminex xMAP intracellular protein assay is a multiplex multiparameter assay that employs a multiplex of fluorescent-labeled antibodies and magnetic particles to enhance the sensitivity, dynamic range, and accuracy of the analytical method. Luminex technology is employed to identify the proteins of interest present in each well. The mean fluorescence intensity (MFI) of each measured protein is then converted to its concentration (pg·mL^−1) using specialized software and standard curves.
(§4) The test substances were incubated with the cells at two concentrations, […], for a period of six hours. […] Following exposure, approximately 1 × 10⁶ cells from each well were transferred to 0.5-mL tubes (Eppendorf, Hamburg, Germany) and washed with PBS. Subsequently, the PBS was removed, 10 μL of lysis buffer (Cell Signaling Buffer and Detection Kit, Luminex, Austin, TX, USA) supplemented with 2 × protease and phosphatase inhibitors (Luminex, USA) was added, and the mixture was shaken for 30 s. A cocktail of fluorescence-encoded magnetic bead microspheres (MagPlex®, Luminex, USA) was resuspended and treated with ultrasound. Subsequently, 70 μL of this cocktail, 70 μL of protein standard, and 70 μL of the test sample were added to the wells of a 96-well microplate and incubated for 2 h at room temperature with stirring on an orbital shaker at 700–850 rpm. A magnetic plate was firmly attached to the bottom of a 96-well plate, and all wells were washed three times with 100 μL of wash buffer (Cell Signaling Buffer and Detection Kit, Luminex, USA) added to each well to remove unbound particles. Subsequently, 50 μL of […] to each well, and the samples were incubated for one hour at 4 °C on an orbital shaker set at 700–850 rpm. Subsequently, the samples were washed once more to remove any unbound antibodies. Afterwards, 70 μL of streptavidin-phycoerythrin (streptavidin-PE) (Luminex, USA) was added to each well and incubated for 30 min at room temperature on a shaker at 600 rpm. Subsequently, the samples were washed with streptavidin-PE and resuspended in 100 μL of wash buffer for a period of 2 min on a shaker at 800 rpm. The data were analyzed using the Milliplex Analyst 5.1 software (EMD Millipore, Billerica, MA, USA).

Jurkat cells [2] = assay: MILLIPLEX MAP Early Apoptosis 7-plex Magnetic Bead Kit (Luminex); details: 6 h; for Casp 8 protein level: activated caspase-8
From the text: as §3, §4

[3] = Cytotoxicity assay (7-AAD, flow cytometry); details: human
Protocol: (§5) The human cell lines Jurkat, K562, U937, and HEK293 were obtained from the European Collection of Authenticated Cell Cultures (ECACC) and subsequently cultured in accordance with established standard protocols and sterile techniques. The cells were maintained in RPMI 1640 (for Jurkat, K562, and U937) or DMEM (for HEK293) medium, both of which were supplemented with […], 10% FBS (Sigma, Kanagawa, Japan), and 100 units/mL penicillin-streptomycin (Sigma). Subsequently, the cells were seeded into 24-well plates at a density of 5 × 10^4 cells per well and incubated for 12 h (Jurkat, K562, U937) and 24 h (HEK293).
(§6) The viability of the cells was evaluated through the utilization of the 7-AAD (7-aminoactinomycin D) dye (eBioscience™, San Diego, CA, USA). Following a 24 h incubation period with the test substances, the cells were washed with phosphate-salt buffer (PBS) and centrifuged at 400× g for five minutes. The precipitate was resuspended in 200 μL of flow cytometry buffer (PBS without calcium and magnesium, 2.5% FBS) and incubated with a 1 mM 7-AAD dye solution for 15 min in the dark at room temperature. Subsequently, all cell samples were subjected to analysis on a NovoCyte Penteon flow cytometer (Agilent, Santa Clara, CA, USA).

[4] = Cytotoxicity assay (7-AAD, flow cytometry); details: human, Jurkat cells; Jurkat, 24 h incubation
Protocol: as §1, §2

Jurkat cells [5] = assay: Cell cycle analysis (MAK344 kit, flow cytometry); details: compound at CC50, 24 h
Protocol: Cell cycle analysis was performed using the MAK344 cell cycle assay kit (Sigma-Aldrich, St. Louis, MO, USA). Immediately after incubation with the tested compounds for 24 h, cells were gently washed with ice-cold phosphate-buffered saline (PBS) and centrifuged at 450× g for 5 min. After removing the supernatant, the cell precipitate was resuspended and fixed with 70% ethanol with continuous shaking on ice, and then stored at −18 degrees Celsius for 24 h. Prior to staining, the cells were washed with ice-cold PBS, and then 0.5 mL of the Cell Cycle Assay Kit working solution was added to the cell suspension at room temperature in the dark according to the working protocol. Samples were then analyzed on a NovoCyte Penteon flow cytometer (Agilent, USA).

U937 = assay: Cytotoxicity assay (7-AAD, flow cytometry); details: Homo sapiens, U-937; U937, abstract
Protocol: as §5, §6

HEK293 = assay: Cytotoxicity assay (7-AAD, flow cytometry); details: Homo sapiens; HEK293, abstract
Protocol: as §5, §6

K562 = assay: Cytotoxicity assay (7-AAD, flow cytometry); details: Homo sapiens; K562, abstract
Protocol: as §5, §6

[6] = 6 h, at CC50 (anisomycin at IC50 0.192 μmol/L), ATR (total)
[7] = 6 h, at CC50 (anisomycin at IC50 0.192 μmol/L), CHK1 (S345)
[8] = 6 h, at CC50 (anisomycin at IC50 0.192 μmol/L), CHK2 (T68)
[9] = 6 h, at CC50 (anisomycin at IC50 0.192 μmol/L), H2AX (S139)
[10] = 6 h, at CC50 (anisomycin at IC50 0.192 μmol/L), MDM2 (total)
[11] = 6 h, at CC50 (anisomycin at IC50 0.192 μmol/L), p21 (total)
[12] = 6 h, at CC50 (anisomycin at IC50 0.192 μmol/L), p53 (S15), genotoxicity panel
[13] = at CC50 (anisomycin at IC50 0.192 μmol/L), AKT/PKB (S473)
[14] = at CC50 (anisomycin at IC50 0.192 μmol/L), BAD (S112)
[15] = at CC50 (anisomycin at IC50 0.192 μmol/L), BCL-2 (S70)
[16] = at CC50 (anisomycin at IC50 0.192 μmol/L), JNK/SAPK1 (T183/Y185)
[17] = at CC50 (anisomycin at IC50 0.192 μmol/L)
[18] = at CC50 (anisomycin at IC50 0.192 μmol/L), activated caspase-9
[19] = at CC50 (anisomycin at IC50 0.192 μmol/L), p53 (S46), apoptosis panel
[20] = HEK293 cells, HEK293, 24 h incubation
[21] = K562 cells, K562, 24 h incubation
[22] = U937 cells, U937, 24 h incubation

COc1ccc(C[C@H]2NC[C@H](O)[C@H]2OC(C)=O)cc1 [Anisomycin, anisomycin, reference compound]
IC50 (Jurkat; Jurkat cells, concentration used for the control compound, read-out: IC50): 0.192 µM | ATR protein level (Jurkat cells [1]; [6]): 440 % of control | Chk1 protein level (Jurkat cells [1]; [7]): 610 % of control | Chk2 protein level (Jurkat cells [1]; [8]): 20836 % of control | H2A.X protein level (Jurkat cells [1]; [9]): 1841 % of control | MDM2 protein level (Jurkat cells [1]; [10]): 367 % of control | p21 protein level (Jurkat cells [1]; [11]): 3727 % of control | p53 protein level (Jurkat cells [1]; [12]): 738 % of control | Akt protein level (Jurkat cells [2]; [13]): 129 % of control | Bad protein level (Jurkat cells [2]; [14]): 486 % of control | Bcl-2 protein level (Jurkat cells [2]; [15]): 3180 % of control | JNK protein level (Jurkat cells [2]; [16]): 357 % of control | Casp 8 protein level (Jurkat cells [2]; [17]): 1229 % of control | Casp9 protein level (Jurkat cells [2]; [18]): 9353 % of control | p53 protein level (Jurkat cells [2]; [19]): 17 % of control

CC[C@@]1(O)C(=O)OCc2c1cc1n(c2=O)Cc2cc3ccccc3nc2-1 [CPT, camptothecin, reference compound]
CC50 at 24 h [3, 20]: 0.692 ± 0.0536 µM | CC50 at 24 h [3, 21]: 0.595 ± 0.0544 µM | CC50 at 24 h [3, 22]: 0.522 ± 0.0444 µM | CC50 at 24 h [4]: 0.588 ± 0.0462 µM | ATR protein level (Jurkat cells [1]; [6]): 263 % of control | Chk1 protein level (Jurkat cells [1]; [7]): 52 % of control | Chk2 protein level (Jurkat cells [1]; [8]): 5800 % of control | H2A.X protein level (Jurkat cells [1]; [9]): 957 % of control | MDM2 protein level (Jurkat cells [1]; [10]): 1417 % of control | p21 protein level (Jurkat cells [1]; [11]): 170654 % of control | p53 protein level (Jurkat cells [1]; [12]): 17285 % of control | Akt protein level (Jurkat cells [2]; [13]): 196 % of control | Bad protein level (Jurkat cells [2]; [14]): 516 % of control | Bcl-2 protein level (Jurkat cells [2]; [15]): 580 % of control | JNK protein level (Jurkat cells [2]; [16]): 141 % of control | Casp 8 protein level (Jurkat cells [2]; [17]): 209 % of control | Casp9 protein level (Jurkat cells [2]; [18]): 10289 % of control | p53 protein level (Jurkat cells [2]; [19]): 132 % of control

CC(=O)O[C@H]1CC[C@@]2(C)C(CC[C@]3(C)C2CC=C2C4CC(C)(C)CC[C@]4(C(=O)Nc4ccnn4C)CC[C@]23C)C1(C)C (stereo partly drawn) [compound 7a]
cell population in the S-phase (Freq S) (Jurkat cells [5]): 48.89% | percentage of cells in the G2/M phase (Freq G2) (Jurkat cells [5]): 1.91% | CC50 at 24 h [3, 20]: 58.4 ± 6.02 µM | CC50 at 24 h [3, 21]: 17.7 ± 1.39 µM | CC50 at 24 h [3, 22]: 14.4 ± 1.04 µM | CC50 at 24 h [4]: 22.1 ± 1.96 µM

Cn1nccc1NC(=O)[C@]12CCC(C)(C)C[C@H]1C1=CC[C@@H]3[C@@]4(C)CC[C@H](OC(=O)CCC/C=C\CC/C=C\CCCC(=O)O)C(C)(C)[C@@H]4CC[C@@]3(C)[C@]1(C)CC2 [compound 9a]
cell population in the S-phase (Freq S) (Jurkat cells [5]): 46.10% | percentage of cells in the G2/M phase (Freq G2) (Jurkat cells [5]): 3.96% | percentage of cells in the pre-G0 phase (Freq Sub-G1) (Jurkat cells [5]): 8.67% | IC50 (U937): 2.8 µM | IC50 (HEK293): 26.2 µM | CC50 at 24 h [3, 20]: 26.2 ± 1.93 µM | CC50 at 24 h [3, 21]: 3.09 ± 0.34 µM | CC50 at 24 h [3, 22]: 2.85 ± 0.34 µM | IC50 (K562): 3.1 µM | IC50 (Jurkat; Homo sapiens, Jurkat, abstract, read-out: IC50 Jurkat): 4.5 µM | CC50 at 24 h [4]: 4.51 ± 0.41 µM | ATR protein level (Jurkat cells [1]; 6 h, at 0,5CC50): 119 % of control | Chk1 protein level (Jurkat cells [1]; 6 h, at 0,5CC50): 97 % of control | Chk2 protein level (Jurkat cells [1]; 6 h, at 0,5CC50): 645 % of control | H2A.X protein level (Jurkat cells [1]; 6 h, at 0,5CC50): 2485 % of control | MDM2 protein level (Jurkat cells [1]; 6 h, at 0,5CC50): 115 % of control | p21 protein level (Jurkat cells [1]; 6 h, at 0,5CC50): 318 % of control | p53 protein level (Jurkat cells [1]; 6 h, at 0,5CC50, genotoxicity panel): 52 % of control | level of phosphorylated H2A.X in comparison to the control compound camptothecin (Jurkat cells [1]; 6 h, at 0.5CC50): ~3.5 fold | ATR protein level (Jurkat cells [1]; [6]): 131 % of control | Chk1 protein level (Jurkat cells [1]; [7]): 144 % of control | Chk2 protein level (Jurkat cells [1]; [8]): 936 % of control | H2A.X protein level (Jurkat cells [1]; [9]): 3173 % of control | MDM2 protein level (Jurkat cells [1]; [10]): 102 % of control | p21 protein level (Jurkat cells [1]; [11]): 390 % of control | p53 protein level (Jurkat cells [1]; [12]): 128 % of control | phosphorylated H2A.X, marker of DNA double-strand breaks (Jurkat cells [1]; six hours): dose-dependent increase | Akt protein level (Jurkat cells [2]; at 0,5CC50): 15 % of control | Bad protein level (Jurkat cells [2]; at 0,5CC50): 106 % of control | Bcl-2 protein level (Jurkat cells [2]; at 0,5CC50): 140 % of control | Casp9 protein level (Jurkat cells [2]; at 0,5CC50): 1144 % of control | JNK protein level (Jurkat cells [2]; at 0,5CC50): 78 % of control | p53 protein level (Jurkat cells [2]; at 0,5CC50, apoptosis panel): 112 % of control | Bad protein level (Jurkat cells [2]; [14]): 55 % of control | Bcl-2 protein level (Jurkat cells [2]; [15]): 20 % of control | JNK protein level (Jurkat cells [2]; [16]): 106 % of control | Casp 8 protein level (Jurkat cells [2]; [17]): 17 % of control | Casp9 protein level (Jurkat cells [2]; [18]): 1341 % of control | p53 protein level (Jurkat cells [2]; [19]): 160 % of control
